The text below walks through data of patent publication US20240401154A1, “SYNTHESIS AND PREPARATION OF ULTRA-LOW VISCOSITY AND HIGH MAGNETIC SUSCEPTIBILITY MAGNETIC IONIC LIQUIDS” (priority 2023, published 2024).

The structures appear in SMILES notation.

Common to all, as to format: physicochemical
Series [1] in a line: Thermal stability by thermogravimetric analysis (TGA). To be noted: TGA at 10% weight loss. As for the experimental part: (§1) The thermal stability of MILs was measured from 40 to 350° C. at a ramp rate of 5° C. min^−1 by performing thermogravimetric analysis (TGA) using a NETZSCH STA 449 F1 Jupiter thermal analyzer (Selb, Germany). To further investigate the thermal stability of MILs using a more sensitive technique, the solvents were employed as a gas chromatographic (GC) stationary phase and subjected to an oven temperature program from 40 to 200° C. at a ramp rate of 1° C. min^−1 and decomposition/degradation products detected using an ultra-sensitive flame ionization detector (FID), with all measurements being performed on an Agilent Technologies 7890B gas chromatograph (Santa Clara, CA, USA).
Volitization/degradation of MILs as a function of temperature were measured using thermogravimetric analysis. The thermal stability of magnetic ionic liquids was measured from 40 to 350° C. at a ramp rate of 5° C. min^−1 by performing thermogravimetric analysis (TGA) using a NETZSCH STA 449 F1 Jupiter thermal analyzer (Selb, Germany).
To investigate the ability of DGE-based MILs to withstand elevated temperatures without undergoing degradation/decomposition, their thermal stabilities were investigated using thermogravimetric analysis (TGA). FIG. 13 through FIG. 27 display thermograms for MILs 1 to 15. The thermogram results are summarized in greater detail in the following paragraphs.

Series [2] is described as follows: Viscosity, Brookfield DVI cone and plate viscometer. As to conditions: 21.7° C.; neat MIL dried 48 hours under vacuum. The method, then:
A Brookfield DVI cone and plate viscometer equipped with a CPA-51Z cone spindle was employed to obtain viscosity measurements at […] using approximately 0.5 g of each MIL after extensive drying for 48 hours under vacuum. Viscosity measurements were conducted at 21.7° C. for 15 lanthanide and transition metal MILs examined in this study.
Viscosity measurements were conducted at 21.7° C. for 15 lanthanide and transition metal MILs examined in this study.

Series [3] is described as follows: Thermal stability, MIL as GC stationary phase with FID. To be noted: exponential increase in response beyond 2,000 pA. The method, then:
as §1
To further investigate the thermal stability of MILs using a more sensitive technique, the solvents were employed as a gas chromatographic (GC) stationary phase and subjected to an oven temperature program from 40 to 200° C. at a ramp rate of 1° C. min^−1 and decomposition/degradation products detected using an ultra-sensitive flame ionization detector (FID).

A short description of series [4]: Effective magnetic moment from magnetic susceptibility balance (MSB). To be noted: per formula unit. The method, then: Magnetic properties were analyzed using a magnetic susceptibility balance (MSB, Sherwood Scientific, Cambridge, UK) and a Quantum Design Superconducting Quantum Interference Device (SQUID) magnetometer (MPMS XL-7). The magnetic properties of transition metal MILs were further studied using a SQUID magnetometer to confirm their paramagnetic nature as well as if any magnetic transition occurs in the samples.
Magnetic susceptibility (XM) was calculated through Equation (1).
Effective magnetic moment (μeff) was calculated through Equation (2). In Equation (2), T represents the temperature at which the magnetic susceptibility measurements were conducted.
15 MILs incorporating rare-earth and transition metals were examined using a magnetic susceptibility balance (MSB).

Series [5] in a line: Solubility of MILs in organic solvents and water. The source says:
The solubility of lanthanide and transition metal MILs was investigated in popular traditional organic solvents. […]
The solubility of lanthanide and transition metal MILs was investigated in popular traditional organic solvents.

The mark [6] stands for this setting: acetone, chloroform, dichloromethane, acetonitrile, methanol, ethanol, diethyl ether, ethyl acetate, isopropanol at 20% (w/v).
The mark [7] stands for this setting: hexane, heptane, benzene, toluene at 10% (w/v).
The mark [8] stands for this setting: hexane, heptane, benzene, toluene at 20% (w/v).
[9] abbreviates: twelve organic solvents (without acetonitrile) at 50% (w/v).

As to `CCCCCCCCOC(=O)COCC(=O)OCCCCCCCC.CCCCCCCCOC(=O)COCC(=O)OCCCCCCCC.CCCCCCCCOC(=O)COCC(=O)OCCCCCCCC.CCCCCCCCOC(=O)COCC(=O)OCCCCCCCC.CCCCCCCCOC(=O)COCC(=O)OCCCCCCCC.CCCCCCCCOC(=O)COCC(=O)OCCCCCCCC.O=C(C=C([O-])C(F)(F)F)C(F)(F)F.O=C(C=C([O-])C(F)(F)F)C(F)(F)F.O=C(C=C([O-])C(F)(F)F)C(F)(F)F.O=C(C=C([O-])C(F)(F)F)C(F)(F)F.O=C(C=C([O-])C(F)(F)F)C(F)(F)F.O=C(C=C([O-])C(F)(F)F)C(F)(F)F.O=C(C=C([O-])C(F)(F)F)C(F)(F)F.O=C(C=C([O-])C(F)(F)F)C(F)(F)F.[Co+2].[Gd+3].[Gd+3]` [compound 14], the “Onset of MIL volatilization (° C.)^2” value in series [1] is 172.9 °C. Further, the “Viscosity (cP)” value in series [2] is given as 149.1 cP. Besides, the “Onset of MIL volatilization (° C.)^1” value in series [3] was 126 °C. For the same molecule, in series [4], the “μeff, effective magnetic moment” value was found to be 12.43 μB. Besides, the Solubility entry in series [5] (setting [6]) is “S^b (soluble in acetone, chloroform, dichloromethane, acetonitrile, methanol, ethanol, diethyl ether, ethyl acetate, and isopropanol at 20% (w/v).)”; in series [5] (setting [7]), “S^a (soluble in hexane, heptane, benzene, and toluene at 10% (w/v).)”; in series [5] (setting [8]) it was “S^c (soluble in hexane, heptane, benzene, and toluene at 20% (w/v).)”; in series [5] (setting [9]) it was “S^d (soluble in acetone, chloroform, dichloromethane, methanol, ethanol, diethyl ether, ethyl acetate, isopropanol hexane, heptane, benzene, and toluene at 50% (w/v).)”; in series [5] (water at 0.01% (w/v)), “S^f (insoluble in water at 0.01% (w/v).)”.
`CCCCCCOC(=O)COCC(=O)OCCCCCC.CCCCCCOC(=O)COCC(=O)OCCCCCC.CCCCCCOC(=O)COCC(=O)OCCCCCC.CCCCCCOC(=O)COCC(=O)OCCCCCC.CCCCCCOC(=O)COCC(=O)OCCCCCC.CCCCCCOC(=O)COCC(=O)OCCCCCC.O=C(C=C([O-])C(F)(F)F)C(F)(F)F.O=C(C=C([O-])C(F)(F)F)C(F)(F)F.O=C(C=C([O-])C(F)(F)F)C(F)(F)F.O=C(C=C([O-])C(F)(F)F)C(F)(F)F.O=C(C=C([O-])C(F)(F)F)C(F)(F)F.O=C(C=C([O-])C(F)(F)F)C(F)(F)F.[Mn+2].[Mn+2].[Mn+2]` [compound 3]: the “Onset of MIL volatilization (° C.)^2” value in series [1] amounted to 256.8 °C. The “Viscosity (cP)” value in series [2] was determined as 63.2 cP. Moreover, the “Onset of MIL volatilization (° C.)^1” value in series [3] was 168 °C. In addition, the “μeff, effective magnetic moment” value in series [4] turned out to be 10.42 μB. Further, the Solubility result is “S^b (soluble in acetone, chloroform, dichloromethane, acetonitrile, methanol, ethanol, diethyl ether, ethyl acetate, and isopropanol at 20% (w/v).)” in series [5] (setting [6]); “S^e (insoluble in acetonitrile at 50% (w/v).)” in series [5] (acetonitrile at 50% (w/v)); “S^a (soluble in hexane, heptane, benzene, and toluene at 10% (w/v).)” in series [5] (setting [7]); “S^c (soluble in hexane, heptane, benzene, and toluene at 20% (w/v).)” in series [5] (setting [8]); “S^d (soluble in acetone, chloroform, dichloromethane, methanol, ethanol, diethyl ether, ethyl acetate, isopropanol hexane, heptane, benzene, and toluene at 50% (w/v).)” in series [5] (setting [9]); “S^f (insoluble in water at 0.01% (w/v).)” in series [5] (water at 0.01% (w/v)).
With `O=C(C=C([O-])C(F)(F)F)C(F)(F)F.O=C(C=C([O-])C(F)(F)F)C(F)(F)F.O=C(C=C([O-])C(F)(F)F)C(F)(F)F.O=C(C=C([O-])C(F)(F)F)C(F)(F)F.O=C(C=C([O-])C(F)(F)F)C(F)(F)F.O=C(C=C([O-])C(F)(F)F)C(F)(F)F.O=C(COCC(=O)OC1CCCCC1)OC1CCCCC1.O=C(COCC(=O)OC1CCCCC1)OC1CCCCC1.O=C(COCC(=O)OC1CCCCC1)OC1CCCCC1.O=C(COCC(=O)OC1CCCCC1)OC1CCCCC1.O=C(COCC(=O)OC1CCCCC1)OC1CCCCC1.O=C(COCC(=O)OC1CCCCC1)OC1CCCCC1.[Mn+2].[Mn+2].[Mn+2]` [compound 9], in series [1], the “Onset of MIL volatilization (° C.)^2” value came out at 176.9 °C. In addition, the “Viscosity (cP)” value in series [2] is 478.9 cP. Moreover, the “Onset of MIL volatilization (° C.)^1” value in series [3] stood at 159 °C. Also, in series [4], the “μeff, effective magnetic moment” value is 9.96 μB. The Solubility result is “S^b (soluble in acetone, chloroform, dichloromethane, acetonitrile, methanol, ethanol, diethyl ether, ethyl acetate, and isopropanol at 20% (w/v).)” in series [5] (setting [6]); “S^e (insoluble in acetonitrile at 50% (w/v).)” in series [5] (acetonitrile at 50% (w/v)); “S^a (soluble in hexane, heptane, benzene, and toluene at 10% (w/v).)” in series [5] (setting [7]); “S^c (soluble in hexane, heptane, benzene, and toluene at 20% (w/v).)” in series [5] (setting [8]); “S^d (soluble in acetone, chloroform, dichloromethane, methanol, ethanol, diethyl ether, ethyl acetate, isopropanol hexane, heptane, benzene, and toluene at 50% (w/v).)” in series [5] (setting [9]); “S^f (insoluble in water at 0.01% (w/v).)” in series [5] (water at 0.01% (w/v)).
With `CCCCCCCCOC(=O)COCC(=O)OCCCCCCCC.CCCCCCCCOC(=O)COCC(=O)OCCCCCCCC.CCCCCCCCOC(=O)COCC(=O)OCCCCCCCC.CCCCCCCCOC(=O)COCC(=O)OCCCCCCCC.CCCCCCCCOC(=O)COCC(=O)OCCCCCCCC.CCCCCCCCOC(=O)COCC(=O)OCCCCCCCC.O=C(C=C([O-])C(F)(F)F)C(F)(F)F.O=C(C=C([O-])C(F)(F)F)C(F)(F)F.O=C(C=C([O-])C(F)(F)F)C(F)(F)F.O=C(C=C([O-])C(F)(F)F)C(F)(F)F.O=C(C=C([O-])C(F)(F)F)C(F)(F)F.O=C(C=C([O-])C(F)(F)F)C(F)(F)F.O=C(C=C([O-])C(F)(F)F)C(F)(F)F.O=C(C=C([O-])C(F)(F)F)C(F)(F)F.[Co+2].[Gd+3].[Gd+3]` [MIL 14], the “Onset of MIL volatilization (° C.)^1” value in series [3] (listed as [Co(C8-DGE)6][Gd(hfacac)4]2) is “approximately 120 °C”.
With `CCCCCCCCOC(=O)COCC(=O)OCCCCCCCC.CCCCCCCCOC(=O)COCC(=O)OCCCCCCCC.CCCCCCCCOC(=O)COCC(=O)OCCCCCCCC.CCCCCCCCOC(=O)COCC(=O)OCCCCCCCC.CCCCCCCCOC(=O)COCC(=O)OCCCCCCCC.CCCCCCCCOC(=O)COCC(=O)OCCCCCCCC.O=C(C=C([O-])C(F)(F)F)C(F)(F)F.O=C(C=C([O-])C(F)(F)F)C(F)(F)F.O=C(C=C([O-])C(F)(F)F)C(F)(F)F.O=C(C=C([O-])C(F)(F)F)C(F)(F)F.O=C(C=C([O-])C(F)(F)F)C(F)(F)F.O=C(C=C([O-])C(F)(F)F)C(F)(F)F.O=C(C=C([O-])C(F)(F)F)C(F)(F)F.O=C(C=C([O-])C(F)(F)F)C(F)(F)F.[Co+2].[Ho+3].[Ho+3]` [MIL 15], the “Onset of MIL volatilization (° C.)^1” value in series [3] (listed as [Co(C8-DGE)6][Ho(hfacac)4]2) is “approximately 120 °C”.
On to `CCCCCCOC(=O)COCC(=O)OCCCCCC.CCCCCCOC(=O)COCC(=O)OCCCCCC.CCCCCCOC(=O)COCC(=O)OCCCCCC.CCCCCCOC(=O)COCC(=O)OCCCCCC.CCCCCCOC(=O)COCC(=O)OCCCCCC.CCCCCCOC(=O)COCC(=O)OCCCCCC.O=C(C=C([O-])C(F)(F)F)C(F)(F)F.O=C(C=C([O-])C(F)(F)F)C(F)(F)F.O=C(C=C([O-])C(F)(F)F)C(F)(F)F.O=C(C=C([O-])C(F)(F)F)C(F)(F)F.O=C(C=C([O-])C(F)(F)F)C(F)(F)F.O=C(C=C([O-])C(F)(F)F)C(F)(F)F.[Co+2].[Co+2].[Co+2]` [MIL 1], for which the “Viscosity (cP)” value in series [2] was 175.0 cP.
